Where no end group is shown, it is not given here.
Key:
Mouse sarcoma 180 cells = format: cell-based; settings: for NK-CMC Activity: wide range of concentrations, in the presence and absence of IL-2 (125 U/ml)
Procedure: In one embodiment, a NK cell assay is used to assess ARP-induced cytotoxic activity of NK-like cells. Briefly, by way of example but not limitation, a NK cell assay can be carried out as follows: large granular lymphocytes (LGLs) are co-cultured with tumor cells at various ratios (effector to target ratio) for four days at 37° C., 5% CO2. […] The culture is terminated at the end of day 4 and vitally stained using a MTT cell viability quantification assay (see Mossman, T. J. Immunol. Methods 1983, 65:55; and Sigma Chemical MTT (M5655) product application note). Culture media is aspirated and the remaining cells are washed and replaced with DMEM/F12 plus FCS, containing MTT. The cells are further incubated for 4-5 hours at 37° C. Absorbance is measured with the aid of a plate reader. Decreased absorbance indicated a decrease in the number of viable cells per well (i.e., cytotoxicity). Absorbance is measured again after the MTT is solubilized by replacement of the medium with 2-propanol containing HCl, which gives a uniform color throughout the well. NK-inducing activity is calculated relative to negative (PBS/BSA) and positive (internal standard) controls.
Spleens (10-15 per experiment) were aseptically removed from male Balb/C mice 6-10 weeks of age. Splenocytes were “squeezed” out of spleens using 2 sterile glass microscope slides. Cells were collected in approximately 10 ml of DMEM/F12 containing 10% fetal calf serum (FCS) and gentamicin (50 μg/ml). Single cell suspensions were generated by passing collected cells through a 70 μm nylon mesh screen. After washing the cell pellet once with PBS (centrifuged at 675×g for 5 min), red blood cells were lysed by brief hypotonic shock (i.e. exposure to sterile distilled, deionized water, followed immediately with appropriate volumes of 10×PBS to return to isotonicity). Remaining cells were centrifuged and resuspended in DMEM/F12+10% FCS and transferred to 75 cm^2 flasks each containing 25 mls DMEM/F12+10% FCS (cells from 5 spleens per flask). The cells were incubated for 60 min. at 37° C. to selectively remove readily adherent cells (mainly fibroblasts and macrophages). After the incubation, the flasks were gently shaken and the non-adherent cells were removed, pelleted by centrifugation, and resuspended in DMEM/F12 (no supplements) (1.0 mL/10^8 cells). A 1.0 mL volume of these cell suspensions were carefully layered onto a 70%/60%/40% (2 mL/4 mL/4 mL) Percoll™ gradients in 15 ml centrifuge tubes and centrifuged for 30 min at 675×G. The cells which sediment at the 40/60 interface represent primarily large granular lymphocytes (LGLs), enriched with NK cells. These cells were carefully removed with a pasteur pipet, centrifuged, washed once with PBS and resuspended in approximately 5 mL DMEM/F12 supplemented with gentamicin (50 μg/mL) and 10% fetal calf serum. Cell counts and appropriate dilutions of LGL cells were made with these cells, as described below. For convenience this LGL cell preparation is interchangeably referred to as NK cells.
Mouse sarcoma 180 cells were seeded into 96 well plates at a density of 5×10^3 cells per well in 100 μl DMEM/F12, supplemented with 10% FCS and gentamicin (50 μg/mL). […] NK cells were added in 100 μL of supplemented DMEM/F12 at designated densities: 0 NK cells/well; 5×10^4 NK cells/well (1:10 target/effector ratio); 1.25×10^5 NK cells/well (1:25 target/effector ratio); 2.5×10^5 NK cells/well (1:50 target/effector ratio); and, 5×10^5 NK cells/well (1:100 target/effector ratio). (Note: routinely, only the 1:50 and 1:100 ratios were used for screening purposes. IL2 was added as a media supplement with final concentration of 125 U/mL.). Co-cultures were incubated for 4 days at 37° C., 5% CO2, and terminated and vitally stained using a MTT cell viability quantification assay (see Mossman, T. J. Immunol. Methods 65:55 (1983); and Sigma Chemical MTT (M5655) product application note). […]

[1] = tested on: freshly isolated dendritic cells (CD11c+ splenocytes); assay: Dendritic cell (DC) assay: IL-12 release; format: cell-based, BALB/c mice; settings: for DC/mIL12 Release: tested for synergism and inhibition
Description: In a preferred embodiment, dendritic cell (DC) assay is used to follow interleukin-12 (IL-12) release from freshly isolated dendritic cells as an index of DC activation (see section 13). […] Briefly, by way of example but not limitation, a DC assay can be carried out as follows: freshly isolated dendritic cells (CD11c^+ splenocytes, e.g., isolated from the spleens of BALB/c mice within ten hours of assaying the activity) are suspended at a density of 0.5×10^6 cells per mL in cytokine supplemented culture media (GM-CSF, 1.0 ng/ml; IL-4, 1.0 ng/ml; IFNg, 3 ng/ml; anti mouse CD40; 0.5 mg/ml). […] Mouse IL-12 release from the dendritic cells (CD11c^+ splenocytes) is then measured using ELISA.
DCs were isolated from the spleens of male BALB/c mice 8-12 weeks of age (Harlan Bioproducts for Science, Indianapolis, Ind.), using the magnetic assisted cell separation (MACS) system purchased from Miltenyi Biotech. In summary: Spleens were aseptically removed from mice and placed into a petri dish containing 5 mL holding media (DMEM/F12 supplemented with 10% FCS and antibiotics). Each spleen was then injected with ˜0.5 mls collagenase D solution (1 mg/mL in 10 mM Hepes-NaOH, pH 7.4, 150 mM NaCl, 5 mM MgCl2, 1.8 mM CaCl2), placed into 5-10 mL collagenase D, cut into 5-6 pieces and incubated at 37° C. for 45-60 min. Collagenase-digested spleens were then processed with glass slides and passed through a 70 μm nylon mesh cell strainer. After the strainer was flushed with 40 mL culture media, cells were centrifuged (8 min @ 200×G), suspended in 1 mL PBS and subjected to red blood cell lysis by incubating the cell suspension for 5 min at room temperature in 10 mL lysis buffer (155 mM NH4Cl, 10 mM KHCO3, 0.1 mM EDTA), followed by dilution in PBS to 50 mL and centrifugation (8 min @ 200×g). The splenocytes were then suspended in 10 mL MACS buffer (PBS pH 7.2, supplemented with 2 mM EDTA and 0.5% BSA), passed through a 40 μm nylon mesh cell strainer which was flushed with 40 mL MACS buffer. A preliminary cell count was taken at this time, prior to centrifugation (8 min @ 200×G). The splenocytes were suspended at a density of 10^8 cells per 400 μL MACS buffer. Paramagnetic MicroBeads coated with anti-CD11c antibody were mixed with the splenocyte suspension (100 μL per 10^8 cells), incubated at +4° C. for 15 min, washed, suspended in 1.0 mL MACS buffer and passed through a MS+separation column placed within a strong magnetic field. CD11c^+ cells were retained in the column whereas CD11c^− cells were washed off the column as the flow-through cell fraction. CD11c^+ cells were then collected by removing the column out of the magnetic field and flushing the column twice with 1 mL of MACS buffer. CD11c^+ cells were washed once with culture media and suspended at a density of 0.5×10^6 cells per mL in cytokine supplemented culture media {DMEM/F12 supplemented with 10% FCS and gentamicin containing mouse GM-CSF (1 ng/mL), mouse IL-4 (1 ng/mL), mouse IFNγ (3 ng/mL) and anti mouse CD40 (0.5 mg/mL)}.
Mouse IL12 release from CD11c^+ splenocytes was measured using ELISA. Briefly, CD11c+ cell culture supernatants were sampled following an overnight incubation (usually 15-18 hrs). Media samples (100 μL) were added to ELISA plates coated with anti mouse IL12 (p70) capture antibody (R&D #MAB419; 250 ng in 100 μL per well) and incubated either at 37° C. or room temperature for 2 hrs. The ELISA plates were washed extensively with wash buffer after which 100 μL per well of detection antibody/detection reagent (biotinylated anti-mouse IL12; R&D #BAF419 at 50 ng/mL and streptavidin-HRP) was added. The ELISA plates were again incubated for 2 hours, washed and exposed to […] substrate solution (Pierce #34021) for 20 min. The substrate reaction was stopped by adding 100 μL/well 2M H2SO4. ELISA plates were read at 450 nm (corrected at 540 nm) and mIL12(p70) levels were calculated using an intra-ELISA standard curve (range: 2000-31.25 pg/mL).

Row | Molecule | NK-CMC Activity (Mouse sarcoma 180 cells) | other results
1 | IL-5: interleukin | − | DC/mIL12 Release [1]: −
2 | Magainin I | − | 
3 | TNFα |  | Enhancement of NK-CMC compared to BEX (Mouse sarcoma 180 cells; same conditions as BEX): relatively weak enhancers; DC/mIL12 Release [1]: −
4 | [Cl-].[Cl-].[Zn+2] [ZnCl2] |  | Inhibition of DC-activity induced by crude ARP preparations [1]: inhibition of activity in mM-μM concentration range
5 | FGFbasic: growth factor | − | DC/mIL12 Release [1]: −
6 | IFNα | − | 
7 | Cecropin A: defensin / anti-microbial peptide (KWKLFKKIEKVGQNIRDGIIKAGPAVAVVGQATQIAK; UniProt P01507 27-63, looked up) | − | 
8 | Cecropin B: defensin / anti-microbial peptide (KWKVFKKIEKMGRNIRNGIVKAGPAIAVLGEAKAL; ends and bridges not checked; UniProt P01508 27-61, looked up) | − | 
9 | [Cl-].[Cl-].[Mg+2] [MgCl2] |  | Inhibition of DC-activity induced by crude ARP preparations [1]: did not
10 | [Cl][Cu][Cl] [CuCl2] |  | Inhibition of DC-activity induced by crude ARP preparations [1]: inhibition of activity in mM-μM concentration range
11 | [Ca+2].[Cl-].[Cl-] [CaCl2] |  | Inhibition of DC-activity induced by crude ARP preparations [1]: did not
12 | Cecropin P1 | − | 
13 | Magainin II | − | 
14 | TGFα: growth factor | − | 
15 | IL-15: interleukin | − | 
16 | JE/MCP-1: chemokine | − | 
17 | IL-18: interleukin (protein, UniProt P70380 36-192, looked up) Interleukin-18: NFGRLHCTTAVIRNINDQVLFVDKRQPVFEDMTDIDQSASEPQTRLIIYMYKDSEVRGLAVTLSVKDSKMSTLSCKNKIISFEEMDPPENIDDIQSDLIFFQKRVPGHNKMEFESSLYEGHFLACQKEDDAFKLILKKKDENGDKSVMFTLTNLHQS |  | DC/mIL12 Release [1]: −
18 | KC: chemokine (protein, UniProt P12850 25-96, looked up) Growth-regulated alpha protein: APIANELRCQCLQTMAGIHLKNIQSLKVLPSGPHCTQTEVIATLKNGREACLDPEAPLVQKIVQKMLKGVPK | − | 
19 | MIP-1α: chemokine (protein, UniProt P10855 24-92, looked up) C-C motif chemokine 3: APYGADTPTACCFSYSRKIPRQFIVDYFETSSLCSQPGVIFLTKRNRQICADSKETWVQEYITDLELNA | − | 
20 | IL-7: interleukin (protein, UniProt P10168 26-154, looked up) Interleukin-7: ECHIKDKEGKAYESVLMISIDELDKMTGTDSNCPNNEPNFFRKHVCDDTKEAAFLNRAARKLKQFLKMNISEEFNVHLLTVSQGTQTLVNCTSKEEKNVKEQKKNDACFLKRLLREIKTCWNKILKGSI | − | 
21 | IL-12: Interleukin 12 (protein, UniProt P43431 23-215; P43432 23-335, looked up) Interleukin-12 subunit alpha: RVIPVSGPARCLSQSRNLLKTTDDMVKTAREKLKHYSCTAEDIDHEDITRDQTSTLKTCLPLELHKNESCLATRETSSTTRGSCLPPQKTSLMMTLCLGSIYEDLKMYQTEFQAINAALQNHNHQQIILDKGMLVAIDELMQSLNHNGETLRQKPPVGEADPYRVKMKLCILLHAFSTRVVTINRVMGYLSSA Interleukin-12 subunit beta: MWELEKDVYVVEVDWTPDAPGETVNLTCDTPEEDDITWTSDQRHGVIGSGKTLTITVKEFLDAGQYTCHKGGETLSHSHLLLHKKENGIWSTEILKNFKNKTFLKCEAPNYSGRFTCSWLVQRNMDLKFNIKSSSSSPDSRAVTCGMASLSAEKVTLDQRDYEKYSVSCQEDVTCPTAEETLPIELALEARQQNKYENYSTSFFIRDIIKPDPPKNLQMKPLKNSQVEVSWEYPDSWSTPHSYFSLKFFVRIQRKKEKMKETEEGCNQKGAFLVEKTSTEVQCKGGNVCVQAQDRYYNSSCSKWACVPCRVRS |  | Effect on NK-CMC (footnotes of Table 16) (Mouse sarcoma 180 cells): synergistically increases NK-CMC at low concentrations of IL-2
22 | IL-11: interleukin (protein, UniProt P20809 22-199, looked up) Interleukin-11: PGPPPGPPRVSPDPRAELDSTVLLTRSLLADTRQLAAQLRDKFPADGDHNLDSLPTLAMSAGALGALQLPGVLTRLRADLLSYLRHVQWLRRAGGSSLKTLEPELGTLQARLDRLLRRLQLLMSRLALPQPPPDPPAPPLAPPSSAWGGIRAAHAILGGLHLTLDWAVRGLLLLKTRL | − | 
23 | IL-4: interleukin (protein, UniProt P07750 21-140, looked up) Interleukin-4: HIHGCDKNHLREIIGILNEVTGEGTPCTEMDVPNVLTATKNTTESELVCRASKVLRIFYLKHGKTPCLKKNSSVLMELQRLFRAFRCLDSSISCTMNESKSTSLKDFLESLKSIMQMDYS | − | 

— patent publication US20050058658A1, “Compositions and methods for immunotherapy of human immunodeficiency virus (HIV)” (priority 2003, published 2005)
